Source: ChEMBL document CHEMBL3046105, “Synthesis and antihyperlipidemic efficiency of berberine-based HMG-CoA reductase inhibitor” (Med Chem Res, 2012)
Calls of active or inactive are those of the source. The rule behind the calls is not given here.

How the values were obtained:
Oryctolagus cuniculus [1] = assay: Antihyperlipidemic activity in high fat-high cholesterol fed New Zealand Oryctolagus cuniculus (rabbit) assessed as low-density lipoprotein-cholesterol level in blood at 15 mg/kg, po for 40 days (reference value: 3.47 +/- 0.44 mmol/l); format: functional
Oryctolagus cuniculus [2] = assay: Antihyperlipidemic activity in high fat-high cholesterol fed New Zealand Oryctolagus cuniculus (rabbit) assessed as total cholesterol level in blood at 5 mg/kg, po for 40 days (reference value: 8.74 +/- 0.53 mmol/l); format: functional
Oryctolagus cuniculus [3] = assay: Toxicity in hyperlipidemic New Zealand Oryctolagus cuniculus (rabbit) assessed as effect on spleen coefficient at 5 to 15 mg/kg/day, po for 2 months; format: organism-based; design: route oral; conditions: in vivo
Oryctolagus cuniculus [4] = assay: Reduction in number of lipid droplets in liver cells of high fat-high cholesterol fed New Zealand Oryctolagus cuniculus (rabbit) at 10 to 15 mg/kg, po for 2 months by hematoxylin-eosin staining analysis; format: functional, organism-based
Oryctolagus cuniculus [5] = assay: Toxicity in hyperlipidemic New Zealand Oryctolagus cuniculus (rabbit) assessed as effect on liver coefficient at 5 to 15 mg/kg/day, po for 2 months; format: organism-based; design: route oral; conditions: in vivo
Oryctolagus cuniculus [6] = assay: Toxicity in hyperlipidemic New Zealand Oryctolagus cuniculus (rabbit) assessed as total bilirubin level at 5 mg/kg/day, po for 2 months (reference value: 28.45 +/- 11.55 Umol/l); format: organism-based; design: route oral; conditions: in vivo
[7] = biological target: T1, 3-hydroxy-3-methylglutaryl-coenzyme A reductase (Mus musculus) (UniProt Q01237); assay: Inhibition of HMGR isolated from Mus musculus (mouse) liver assessed as change in NADPH at 8 umol/l by HPLC analysis
T1 sequence (whole entry): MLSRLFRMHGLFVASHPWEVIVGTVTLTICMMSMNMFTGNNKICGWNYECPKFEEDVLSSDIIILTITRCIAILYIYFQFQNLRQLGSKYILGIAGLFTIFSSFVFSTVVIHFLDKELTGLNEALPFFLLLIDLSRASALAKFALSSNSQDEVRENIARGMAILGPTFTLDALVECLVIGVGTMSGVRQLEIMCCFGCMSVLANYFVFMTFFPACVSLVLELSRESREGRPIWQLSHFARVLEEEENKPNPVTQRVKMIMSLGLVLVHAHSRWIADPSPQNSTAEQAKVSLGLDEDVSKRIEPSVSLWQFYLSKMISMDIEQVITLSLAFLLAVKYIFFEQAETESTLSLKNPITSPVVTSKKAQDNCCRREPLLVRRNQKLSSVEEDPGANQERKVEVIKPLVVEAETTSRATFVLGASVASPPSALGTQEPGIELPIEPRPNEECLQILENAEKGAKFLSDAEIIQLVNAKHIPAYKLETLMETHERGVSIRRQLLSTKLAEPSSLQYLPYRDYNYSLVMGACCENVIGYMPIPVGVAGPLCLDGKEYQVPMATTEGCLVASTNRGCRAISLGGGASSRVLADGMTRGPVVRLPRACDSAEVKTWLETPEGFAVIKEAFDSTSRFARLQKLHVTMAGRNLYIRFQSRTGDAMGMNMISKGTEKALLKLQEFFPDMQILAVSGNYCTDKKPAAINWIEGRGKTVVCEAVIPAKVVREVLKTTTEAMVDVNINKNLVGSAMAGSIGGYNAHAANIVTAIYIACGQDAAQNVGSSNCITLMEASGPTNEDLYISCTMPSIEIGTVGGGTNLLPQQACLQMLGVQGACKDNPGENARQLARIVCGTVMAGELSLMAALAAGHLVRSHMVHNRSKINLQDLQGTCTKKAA

Oryctolagus cuniculus [8] = assay: Antihyperlipidemic activity in high fat-high cholesterol fed New Zealand Oryctolagus cuniculus (rabbit) assessed as high-density lipoprotein-cholesterol level in blood at 15 mg/kg, po for 40 days (reference value: 0.69 +/- 0.02 mmol/l); format: functional
Oryctolagus cuniculus [9] = assay: Toxicity in high fat-high cholesterol fed New Zealand Oryctolagus cuniculus (rabbit) assessed as mortality at 15 mg/kg, po for 40 days; format: organism-based; design: dose 15 mg/kg, route oral; conditions: in vivo, 960 h

`CCCCCCCCCCCCCCCCc1c2c(OC)c(OC)ccc2cc2[n+]1CCc1cc3c(cc1-2)OCO3.[Cl-]` [8-HEXADECYL-BERBERINE CHLORIDE] was tested, and the Activity (Oryctolagus cuniculus [1]) was 2.05e+06 nmol/L, the Activity (Oryctolagus cuniculus [2]) was 6.92e+06 nmol/L and the Activity (Oryctolagus cuniculus [3]) was “Non-toxic”. The inhibition (Oryctolagus cuniculus [4]) was “Active”, the Activity (Oryctolagus cuniculus [5]) was “Non-toxic” and the Activity (Oryctolagus cuniculus [6]) was 15.6 µmol/L. The inhibition [7] was 42.7%, the Activity (Oryctolagus cuniculus [8]) was 750000 nmol/L and the Activity (Oryctolagus cuniculus [9]) was “Non-toxic”.
